Measured values reported in publication PMC7619001, “Structural Basis of Bifunctional CTP/dCTP Synthase” (Journal of molecular biology, 2024).

How the values were obtained:
[1] = biological target: T1, CTP synthase (CTPS) (Drosophila melanogaster, UniProt Q9VUL1); assay: cryo-EM structure ([…] Å), reaction intermediate; type: binding
T1 construct: full-length, C-terminal 6xHis-tag
T1 sequence (Q9VUL1 1-627): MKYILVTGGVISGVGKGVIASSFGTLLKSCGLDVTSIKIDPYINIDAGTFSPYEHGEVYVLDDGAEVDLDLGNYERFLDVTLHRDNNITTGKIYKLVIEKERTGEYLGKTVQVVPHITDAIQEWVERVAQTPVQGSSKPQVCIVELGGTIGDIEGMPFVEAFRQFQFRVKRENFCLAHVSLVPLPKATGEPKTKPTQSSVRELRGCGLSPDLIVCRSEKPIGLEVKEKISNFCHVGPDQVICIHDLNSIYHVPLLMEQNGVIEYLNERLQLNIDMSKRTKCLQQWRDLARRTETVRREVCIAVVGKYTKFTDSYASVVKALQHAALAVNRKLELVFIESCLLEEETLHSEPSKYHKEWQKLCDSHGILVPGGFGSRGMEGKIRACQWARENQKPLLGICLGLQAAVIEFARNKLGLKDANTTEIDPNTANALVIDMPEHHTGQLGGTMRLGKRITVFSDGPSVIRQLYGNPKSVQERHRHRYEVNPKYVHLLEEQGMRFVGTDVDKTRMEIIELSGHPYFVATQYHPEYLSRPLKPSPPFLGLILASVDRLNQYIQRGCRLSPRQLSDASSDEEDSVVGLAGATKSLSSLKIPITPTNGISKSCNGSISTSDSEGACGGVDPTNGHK

[2] = biological target: T1, CTP synthase (CTPS); assay: enzyme kinetics at […] nm, Hill fit (KA […]); type: biochemical
[3] = biological target: T1, CTP synthase (CTPS); assay: cryo-EM structure ([…] Å); type: binding
[4] = biological target: T1, CTP synthase (CTPS); assay: activation kinetics (KA = dissociation constant of the E·GTP complex); type: biochemical
[5] = biological target: T1, CTP synthase (CTPS); assay: enzyme kinetics at […] nm, Hill fit (KA […]); type: biochemical; remark: listed apart in the source
[6] = biological target: T1, CTP synthase (CTPS); assay: enzyme kinetics at […] nm, Hill fit (KA […]); type: biochemical; remark: listed apart in the source
[7] = biological target: T1, CTP synthase (CTPS); assay: enzyme activity abolished at […]; filament formation by negative-stain EM; type: biochemical
[8] = biological target: T1, CTP synthase (CTPS); assay: cryo-EM structure; activation kinetics (KA = dissociation constant of the enzyme-regulator complex); type: biochemical
Source text: cryo-EM structure; activation kinetics (KA = dissociation constant of the enzyme-regulator complex) on CTP synthase (CTPS) | we observed a clear electron density of dGTP

[9] = biological target: T1, CTP synthase (CTPS); assay: enzyme kinetics at […] nm, Hill fit (KA […]); type: biochemical; remark: listed apart in the source

SMILES: O=c1nc(OP(=O)(O)O)ccn1[C@H]1C[C@H](O)[C@@H](COP(=O)(O)OP(=O)(O)OP(=O)(O)O)O1 [4Pi-dUTP]
- cryo-EM structure (2.7 Å), reaction intermediate [1]: our electron density map shows that dUTP has been catalyzed by CTPS to 4Pi-dUTP and stabilized through various interactions

SMILES: Nc1ncnc2c1ncn2[C@@H]1O[C@H](COP(=O)(O)OP(=O)(O)OP(=O)(O)O)[C@@H](O)[C@H]1O [ATP]
- Kd [2]: 60 µM

SMILES: [N-]=[N+]=CC(=O)CC[C@H](N)C(=O)O [DON, 6-diazo-L-noreleucine]
- cryo-EM structure (2.7 Å) [3]: The electron density of the covalent inhibitor DON was observed in the binding pocket of the GAT domain

SMILES: Nc1nc2c(ncn2[C@@H]2O[C@H](COP(=O)(O)OP(=O)(O)OP(=O)(O)O)[C@@H](O)[C@H]2O)c(=O)[nH]1 [GTP]
- Kd [4]: 51.2 µM

SMILES: O=c1ccn([C@@H]2O[C@H](COP(=O)(O)OP(=O)(O)OP(=O)(O)O)[C@@H](O)[C@H]2O)c(=O)[nH]1 [UTP]
- Kd [5]: 50 ± 40 µM

SMILES: Nc1ncnc2c1ncn2[C@H]1C[C@H](O)[C@@H](COP(=O)(O)OP(=O)(O)O)O1 [dADP]
- cryo-EM structure (2.7 Å) [3]: dATP has been converted to dADP by CTPS

SMILES: Nc1ncnc2c1ncn2[C@H]1C[C@H](O)[C@@H](COP(=O)(O)OP(=O)(O)OP(=O)(O)O)O1 [dATP]
- Kd [6]: 160 ± 80 µM

SMILES: Nc1ccn([C@H]2C[C@H](O)[C@@H](COP(=O)(O)OP(=O)(O)OP(=O)(O)O)O2)c(=O)n1 [dCTP]
- enzyme activity abolished at 1 mM; filament formation by negative-stain EM [7]: This indicates that both CTP and dCTP have strong inhibition effects on CTPS activity.

SMILES: Nc1nc2c(ncn2[C@H]2C[C@H](O)[C@@H](COP(=O)(O)OP(=O)(O)OP(=O)(O)O)O2)c(=O)[nH]1 [dGTP]
- Kd [8]: 523 ± 312 µM

SMILES: O=c1ccn([C@H]2C[C@H](O)[C@@H](COP(=O)(O)OP(=O)(O)OP(=O)(O)O)O2)c(=O)[nH]1 [dUTP]
- Kd [9]: 280 ± 70 µM
